Assay results taken from US20240041878A1, “APELIN RECEPTOR MODULATORS FOR TREATMENT OF A DISORDER OR DISEASE ASSOCIATED WITH BBB PERMEABILITY” (BioAge Labs, Inc., priority 2022, published 2024).

Key:
Mouse primary astrocytes = experiment: Proteome Profiler Mouse Cytokine Array of astrocyte culture supernatant; format: cell-based; conditions: RAC+BGE-105 [50 nM and 250 nM] versus RAC
Description: To stimulate astrocytes into a reactive state found in aging and neurodegenerative diseases per previous publications (Liddelow et al., 2017; Barbar et al., 2020), a combination of the cytokines TNF-α and IL-1α, and complement factor C1q, were added at 30 ng/mL, 3 ng/mL, and 400 ng/mL, respectively, into astrocyte culture media to make ‘reactive astrocyte cocktail’ (RAC) media. […] Bachem, Cat. #4029110), BAY-11-7082 (50 μM; Abcam, Cat. #ab141228) or equal volume of vehicle (0.01% DMSO in PBS) (hereafter referred to as ‘RAC treatment’). […] To assess a panel of cytokines and chemokines, cell culture supernatant was diluted 1:10 and assayed using the Proteome Profiler Mouse Cytokine Array Kit, Panel A (R&D Systems, Cat. #ARY006) per manufacturer's protocol. Dot blots were analyzed in Fiji (Schindelin et al. 2012. Fiji: an open-source platform for biological-image analysis. Nat Methods 9, 676-682) and transcription factor enrichment was performed with Enrichr (Chen, et al. 2013. Enrichr: interactive and collaborative HTML5 gene list enrichment analysis tool. BMC Bioinformatics 14, 128).

26 month-old mice = experiment: Mouse Cytokine Array Panel on plasma of aged mice; format: in vivo; conditions: 50 mg/kg BID P.O. one week, 10 of 40 cytokines detectable
Description: The mice were handled in accordance with principles and guidelines established by the “Guide for the Care and Use of Laboratory Animals” and overseen by the BioAge Lab's institutional animal care and use committee (IACUC). Mice were housed conventionally in a constant temperature (20-22° C.) and humidity (40%-60%) animal room with a 12/12 h light/dark cycle and free access to food and water. 26 month-old mice were randomized based on the body weight and body condition scores to two groups (vehicle or BGE-105, n=8). 4 month-old female mice were used as an additional control group (vehicle, n=4). Mice were administered P.O. vehicle or BGE-105 at 50 mg/kg (BID) for one week. After completion of dosing, blood samples were collected via retro-orbital bleeding under isoflurane anesthesia into K2-EDTA tubes to prevent coagulation. Mice were euthanized via transcardiac perfusion under isoflurane anesthesia. Whole blood was centrifuged to isolate plasma, which was stored at −80° C. until further experimentation.
For qualitative analysis of 40 different cytokines, plasma samples were assessed with the Mouse Cytokine Array Panel (R&D Systems) according to manufacturer's instructions. […] The optical of each dot on the array serves as a relative measure of cytokine abundance (e.g., a more intensely-stained dot denotes more cytokine present in the sample) and was analyzed with ImageJ software (NIH).

Embryonic rat neurons = experiment: Neuronal survival after RAC-conditioned media (ApoTox-Glo Triplex Assay); format: cell-based
Description: Mice were handled in accordance with principles and guidelines established by the “Guide for the Care and Use of Laboratory Animals” and overseen by the BioAge Lab's Institutional Animal Care and Use Committee (IACUC). Mouse primary astrocytes were isolated and cultured in 0.01% poly-L-lysine coated 6- or 12-well tissue culture plates at 200,000 or 120,000 cells/well, respectively, with astrocyte growth media as previously described in (Lundquist et al. 2022. Knockdown of Astrocytic Monocarboxylate Transporter 4 in the Motor Cortex Leads to Loss of Dendritic Spines and a Deficit in Motor Learning. Mol Neurobiol 59, 1002-1017). Embryonic rat neurons were purchased from ScienCell (Cat. #R1550) and cultured in neuronal media (ScienCell, Cat. #1521) per manufacturer's protocol, with slight modifications. Briefly, neurons were thawed and resuspended in neuronal media with the addition of 1 μg laminin (Sigma, Cat. #L2020) per 1 mL culture media, then plated in 0.01% poly-L-lysine coated 96-well tissue culture plates at 60,000 cells/well. […]
For analysis of neuronal survival, culture media was collected after RAC treatment and added directly to rat neurons (previously described above) for 24 hours. After exposure, neuronal viability was assessed with the ApoTox-Glo Triplex Assay according to manufacturer's protocol (Promega, Cat. #G6320). […]

[1] = test system: NF-κB signaling pathway in astrocytes; experiment: RT Profiler PCR Array, mouse NF-κB Signaling Targets, in astrocytes; format: cell-based; conditions: RAC+BGE-105 [250 nM]
Description: To stimulate astrocytes into a reactive state found in aging and neurodegenerative diseases per previous publications (Liddelow et al., 2017; Barbar et al., 2020), a combination of the cytokines TNF-α and IL-1α, and complement factor C1q, were added at 30 ng/mL, 3 ng/mL, and 400 ng/mL, respectively, into astrocyte culture media to make ‘reactive astrocyte cocktail’ (RAC) media. […] Bachem, Cat. #4029110), BAY-11-7082 (50 μM; Abcam, Cat. #ab141228) or equal volume of vehicle (0.01% DMSO in PBS) (hereafter referred to as ‘RAC treatment’). […] Total RNA purity and concentration was assessed using NanoDrop (ThermoFisher). 500 ng of RNA was used for cDNA synthesis using High-Capacity cDNA Reverse Transcription Kit (Fisher Scientific, Cat. #43-749-66) and total volume of cDNA was diluted to a final concentration of 2 ng/μ1. Gene expression was assessed using a RT Profiler PCR Array (Qiagen, Cat. #330231) specific to mouse NF-κB Signaling Targets according to manufacturer's protocol.

Mouse astrocyte cells = experiment: CXCL1 and IL-6 ELISA of astrocyte culture media after RAC treatment; format: cell-based; conditions: RAC+BGE-105 250 nM

COc1cccc(OC)c1-n1c(NS(=O)(=O)[C@@H](C)[C@H](C)c2ncc(C)cn2)nnc1-c1cncc(C)c1 [BGE-105, (2S,3R)—N-(4-(2,6-dimethoxyphenyl)-5-(5-methyl-3-pyridinyl)-4H-1,2,4-triazol-3-yl)-3-(5-methyl-2-pyrimidinyl)-2-butanesulfonamide]
cytokine and chemokine release (array panel) (Mouse primary astrocytes): significantly reduced | average decrease of optical density of the detectable cytokines in plasma cytokine array (26 month-old mice): 28% | cell viability relative to RAC, exogenous BGE-105 (Embryonic rat neurons; RAC+ex105 [50 nM], added directly to neurons in addition to the toxic RAC media): did not provide statistical change | increase of cellular viability as compared to RAC (Embryonic rat neurons; media of astrocytes treated with RAC+BGE105 [250 nM], added to neurons 24 hours): about 30% | decrease of Cxcl3 expression [1]: 55% | increase of Csf3 expression [1]: 16% | increase of Il2 expression [1]: 184% | CXCL1 concentration/release (FIG. 12) (Mouse astrocyte cells): 20000 to 40000 pg/mL | IL-6 concentration/release (FIG. 12) (Mouse astrocyte cells): about 10000 pg/ml
